From PubChem BioAssay (NCI)
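96-well plates; 48 h exposure; 5 concentrations. Endpoints by linear interpolation between flanking doses. Not reached: highest tested concentration assigned. At the GI50, growth is halved. At the TGI there is no net growth.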

Experiments:
Assay in all cases: growth of human tumour cells (NCI), 48 h
OVCAR-5 ovarian = tested on: OVCAR-5 ovarian
MOLT-4 leukemia = tested on: MOLT-4 leukemia
U251 CNS = tested on: U251 CNS
SK-OV-3 ovarian = tested on: SK-OV-3 ovarian
A498 renal = tested on: A498 renal
SF-295 CNS = tested on: SF-295 CNS
K-562 leukemia = tested on: K-562 leukemia
MDA-MB-231 breast = tested on: MDA-MB-231 breast
RPMI-8226 leukemia = tested on: RPMI-8226 leukemia
NCI-H23 lung = tested on: NCI-H23 lung

Compound | GI50 (OVCAR-5 ovarian) | TGI (OVCAR-5 ovarian) | GI50 (MOLT-4 leukemia) | TGI (MOLT-4 leukemia) | GI50 (U251 CNS) | TGI (U251 CNS) | GI50 (SK-OV-3 ovarian) | TGI (SK-OV-3 ovarian) | GI50 (A498 renal) | TGI (A498 renal) | GI50 (SF-295 CNS) | TGI (SF-295 CNS) | GI50 (K-562 leukemia) | TGI (K-562 leukemia) | GI50 (MDA-MB-231 breast) | TGI (MDA-MB-231 breast) | GI50 (RPMI-8226 leukemia) | TGI (RPMI-8226 leukemia) | GI50 (NCI-H23 lung) | TGI (NCI-H23 lung)
CO[C@H]1CC[C@@]2(C)C(=CC[C@H]3[C@@H]4C[C@H](O)C[C@@]4(C)CC[C@@H]32)C1 | 20.2 µM | 44.1 µM | 4.92 µM | 30.6 µM | 3.54 µM | 15 µM | 4.46 µM | 49 µM | 1.32 µM | 9.25 µM | 2.45 µM | 8.02 µM | 2780 nM | 16 µM | 4.97 µM | 24.7 µM | 3680 nM | 54.2 µM | 5.54 µM | 27.1 µM
COC(=O)N/N=C(\C)C(CN1CCOCC1)C(c1ccccc1)c1cc2ccccc2oc1=O (stereo not given) |  | > 100 µM |  | > 100 µM |  | > 100 µM |  | > 100 µM |  | > 100 µM |  | > 100 µM |  | > 100 µM |  | > 100 µM |  | 53.4 µM |  | > 100 µM
COC(=O)Nc1nc2ccc(Oc3ccc(NC(=O)Nc4cccc(Cl)c4)cc3)cc2[nH]1 | 4.04 µM | > 25 µM | 2.35 µM | 18.8 µM | 1.25 µM | 5.68 µM | 1.03 µM | 4.62 µM | 1.64 µM | 13.8 µM | 0.777 µM | 6.59 µM | 175 nM | > 25 µM | 3.31 µM | 19.3 µM | 1640 nM | > 25 µM | 2.24 µM | 12.9 µM
COc1cc2c(cc1OC)[C@@]1(C)C(=O)c3cc4c(cc3[C@H]1N(C)C2=O)OCO4 | > 100 µM | > 100 µM | 33.3 µM | > 100 µM | 34.3 µM | > 100 µM | 95.5 µM | > 100 µM | 18.6 µM | 90.7 µM | 43.3 µM | > 100 µM | 47600 nM | > 100 µM | 25 µM | > 100 µM | 33900 nM | > 100 µM | > 100 µM | > 100 µM
CC1(C)C2CCC13C(=O)C1OC3(C2)C2C(=O)c3c(O)ccc(O)c3C(=O)C12 (stereo not given) | 38.3 µM | > 100 µM | 5.93 µM | > 46.6 µM | 44.4 µM | 96.9 µM | 42.2 µM | > 100 µM | 4.95 µM | 56.6 µM | 25.2 µM | > 100 µM | 21200 nM | > 59.1 µM | 44.2 µM | > 70.3 µM | 1270 nM | 6.1 µM | 16.4 µM | 37.5 µM
Cc1cccc(N=C2c3cc([N+](=O)[O-])ccc3-c3c2cc([N+](=O)[O-])cc3[N+](=O)[O-])c1 | 18.3 µM | 40.2 µM | 3.64 µM | > 100 µM | 2.57 µM | 7.41 µM | > 100 µM | > 100 µM | 27.8 µM | > 100 µM | 25.2 µM | > 100 µM | 2900 nM | 10.5 µM | 2.43 µM | 5 µM | 2730 nM | 10.7 µM | 5.33 µM | 27.6 µM
